According to patent publication US8198447B2, “Fused tricyclic compound having aldose reductase inhibitory activity” (National University Corporation University of Toyama, priority 2007, dated 2012):

What follows are molecules tested against Aldose reductase II (Homo sapiens, UniProt P15121) (assay: Aldose reductase inhibitory activity (NADPH decrease at 340 nm, DL-glyceraldehyde substrate)). Conditions: pH 6.2, 100 mM DL-glyceraldehyde, 1.5 mM NADPH.
Format: biochemical
Protocol: A reaction solution containing a 200 mM of a phosphate buffer solution (pH 6.2), 1.5 mM of reduced nicotinamide adenine dinucleotide phosphate (NADPH), 1 mg/ml of bovine serum albumin, a test compound, and 100 mM of DL-glyceraldehyde as a substrate was prepared. Aldose reductase II (5.1×10^−1 unit/ml) was added to the solution to initiate the reaction, and the amount of NADPH reduced by the reaction was measured at an absorption wavelength of 340 nm using a spectrophotometer.

In order of rising IC50:
1. O=C(O)COc1ccc2c(c1)c1c(n2CC(=O)O)C(=S)N(Cc2ccccc2)CC1 [Compound 42, (2-Benzyl-6-carboxymethoxy-1-thioxo-1,2,3,4-tetrahydro-β-carbolin-9-yl)acetic acid]  2.6 µM
2. O=C(O)Cn1c2c(c3ccc(Cl)cc31)CCN(Cc1ccccc1)C2=S [Compound 38, (2-Benzyl-7-chloro-1-thioxo-1,2,3,4-tetrahydro-β-carbolin-9-yl)acetic acid]  3.7 µM
3. O=C(O)Cn1c2c(c3cc(O)ccc31)CCN(Cc1ccccc1)C2=S [Compound 40, (2-Benzyl-6-hydroxy-1-thioxo-1,2,3,4-tetrahydro-β-carbolin-9-yl)acetic acid]  4.8 µM
4. O=C(O)Cn1c2c(c3cc(Cl)ccc31)CCN(Cc1ccccc1)C2=S [Compound 27, (2-Benzyl-6-chloro-1-thioxo-1,2,3,4-tetrahydro-β-carbolin-9-yl)acetic acid]  5 µM
5. COc1ccc2c(c1)c1c(n2CC(=O)O)C(=S)N(Cc2ccccc2)CC1 [Compound 29, (2-Benzyl-6-methoxy-1-thioxo-1,2,3,4-tetrahydro-β-carbolin-9-yl)acetic acid]  5.7 µM
6. O=C(O)Cn1c2c(c3cc(Br)ccc31)CCN(Cc1ccccc1)C2=S [Compound 32, (2-Benzyl-6-bromo-1-thioxo-1,2,3,4-tetrahydro-β-carbolin-9-yl)acetic acid]  6.2 µM
7. O=C(O)Cn1c2c(c3ccccc31)CCN(CC1CCCCC1)C2=S [Compound 34, (2-Cyclohexylmethyl-1-thioxo-1,2,3,4-tetrahydro-β-carbolin-9-yl)acetic acid]  7.2 µM
8. O=C(O)Cn1c2c(c3ccccc31)CCN(Cc1cccs1)C2=S [Compound 36, [2-(2-Thienylmethyl)-1-thioxo-1,2,3,4-tetrahydro-β-carbolin-9-yl]acetic acid]  7.6 µM
9. O=C(O)Cn1c2c(c3cc(Cl)ccc31)CCOC2=S [Compound 31, (6-chloro-1-thioxo-3,4-dihydro-1H-pyrano[3,4-b]indol-9-yl) acetic acid]  11.1 µM
10. O=C(O)Cn1c2c(c3ccccc31)CCN(Cc1ccco1)C2=S [Compound 35, [2-(2-Furanylmethyl)-1-thioxo-1,2,3,4-tetrahydro-β-carbolin-9-yl]acetic acid]  16.3 µM
11. O=C(O)Cn1c2c(c3c(F)cc(F)cc31)CCN(Cc1ccc(Br)cc1F)C2=S [Compound 39]  21.1 µM
12. O=C(O)Cn1c2c(c3ccccc31)CCN(C(=O)c1ccc(F)cc1)C2=O [Compound 46, [2-(4-fluorobenzoyl)-1-oxo-1,2,3,4-tetrahydro-β-carbolin-9-yl)acetic acid]  21.7 µM
13. O=C(O)Cn1c2c(c3ccc(Cl)cc31)CCN(Cc1ccc(Br)cc1F)C2=S [Compound 37]  27.4 µM
14. O=C(O)Cn1c2c(c3ccccc31)CCN(C(=O)c1ccc(Br)cc1)C2=O [Compound 47, [2-(4-Bromobenzoyl)-1-oxo-1,2,3,4-tetrahydro-β-carbolin-9-yl]acetic acid]  34.6 µM
15. COc1ccc(C(=O)N2CCc3c(n(CC(=O)O)c4ccccc34)C2=O)cc1 [Compound 48]  35.8 µM
16. O=C(O)Cn1c2c(c3ccccc31)CCN(c1ccccc1)C2=S [Compound 33, (2-Phenyl-1-thioxo-1,2,3,4-tetrahydro-β-carbolin-9-yl)acetic acid]  36.3 µM
17. O=C(O)Cn1c2c(c3ccccc31)CCN(C(=O)c1ccc(F)cc1F)C2=O [Compound 49, [2-(2,4-Difluorobenzoyl)-1-oxo-1,2,3,4-tetrahydro-β-carbolin-9-yl]acetic acid]  45.3 µM
18. O=C(O)Cn1c2c(c3cc(F)ccc31)CCN(Cc1ccccc1F)C2=O [Compound 25, [2-(2-Fluorophenylmethyl)-6-fluoro-1-oxo-1,2,3,4-tetrahydro-β-carbolin-9-yl]acetic acid]  48.6 µM
19. O=C(O)Cn1c2c(c3cc(F)ccc31)CCN(Cc1ccccc1)C2=O [Compound 22, (2-Benzyl-6-fluoro-1-oxo-1,2,3,4-tetrahydro-β-carbolin-9-yl)acetic acid]  51.5 µM
